Assay results: ChEMBL document CHEMBL4742401, “Cyclin-dependent kinase inhibitors and methods of use” (2019)

What follows are molecules tested against T1, Cyclin-dependent kinase 8 (Homo sapiens, UniProt P49336) (assay: Inhibition of CDK8 (unknown origin) by competitive kinase binding based Lantha-screen Eu kinase binding assay).
T1 sequence (P49336 whole entry): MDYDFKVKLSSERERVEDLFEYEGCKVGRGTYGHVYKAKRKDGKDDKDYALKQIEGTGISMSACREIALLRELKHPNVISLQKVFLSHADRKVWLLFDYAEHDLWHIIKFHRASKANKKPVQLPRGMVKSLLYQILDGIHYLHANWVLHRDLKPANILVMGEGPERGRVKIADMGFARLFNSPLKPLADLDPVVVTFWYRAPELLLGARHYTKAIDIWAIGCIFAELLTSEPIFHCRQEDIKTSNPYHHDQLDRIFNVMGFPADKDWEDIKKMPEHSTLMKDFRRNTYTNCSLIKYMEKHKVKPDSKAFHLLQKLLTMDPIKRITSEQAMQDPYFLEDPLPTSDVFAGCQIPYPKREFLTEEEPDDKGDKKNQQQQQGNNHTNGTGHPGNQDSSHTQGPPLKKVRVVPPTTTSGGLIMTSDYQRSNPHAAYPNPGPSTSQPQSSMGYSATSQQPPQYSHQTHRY
In the case of `C[C@]12CC[C@H]3[C@@H](CC=C4C[C@@H](O)CC[C@@]43C)[C@@H]1CC[C@@H]2c1ccc2nc(N)ncc2c1`, the IC50 is reported as 101 nM. For `C[C@]12CC[C@H](n3ccnn3)C[C@@H]1CC[C@@H]1[C@@H]2CC[C@]2(C)[C@@H](c3ccc4ccncc4c3)CC[C@@H]12`, the IC50 was no more than 100 nM. `C[C@]12CC[C@H](O)CC1=CC[C@@H]1[C@@H]2CC[C@]2(C)C(c3ccc4ccncc4c3)=CC[C@@H]12` was tested, and the IC50 was 101 nM. In the case of `CN[C@H]1CC[C@@]2(C)[C@@H](CC[C@@H]3[C@@H]2CC[C@]2(C)[C@@H](c4ccc5ccncc5c4)CC[C@@H]32)C1`, the IC50 is reported as 701 nM. For `C[C@]12CC[C@H](O)CC1=CC[C@@H]1[C@@H]2CC[C@]2(C)C(c3ccc4[nH]ncc4c3)=CC[C@@H]12`, the IC50 was no less than 6000 nM. With `C[C@]12CC[C@H]3[C@@H](CC=C4C[C@@H](O)CC[C@@]43C)[C@@H]1CC[C@@H]2c1ccc2c(N)n[nH]c2c1` the IC50 was 301 nM. Work on `C[C@]12CC[C@H]3[C@@H](CC=C4C[C@@H](O)CC[C@@]43C)[C@@H]1CC[C@@H]2c1ccc2cn[nH]c2c1` yielded an IC50 of no less than 6000 nM. `CN(C)[C@H]1CC[C@@]2(C)[C@@H](CC[C@@H]3[C@@H]2CC[C@]2(C)C(c4ccc5ccncc5c4)=CC[C@@H]32)C1` gave an IC50 of 101 nM. `C[C@]12CC[C@H](O)CC1=CC[C@@H]1[C@@H]2CC[C@]2(C)C(c3ccc4cn[nH]c4c3)=CC[C@@H]12` showed an IC50 of no less than 6000 nM. With `C[C@]12CC[C@H](O)C[C@@H]1CC[C@@H]1[C@@H]2CC[C@]2(C)[C@@H](c3ccc4ccncc4c3)CC[C@@H]12` the IC50 was 201 nM. In the case of `C[C@]12CC[C@H]3[C@@H](CC=C4C[C@@H](O)CC[C@@]43C)[C@@H]1CC[C@@H]2c1ccc2cnccc2c1`, the IC50 is reported as 2000 nM. Molecule `C[C@]12CC[C@H](O)C[C@@H]1CC[C@@H]1[C@@H]2CC[C@]2(C)C(c3ccc4ccncc4c3)=CC[C@@H]12` has an IC50 of 701 nM. Molecule `C[C@]12CC[C@H](O)CC1=CC[C@@H]1[C@@H]2CC[C@]2(C)C(c3ccc4cnccc4c3)=CC[C@@H]12` has an IC50 of no less than 6000 nM. Work on `C[C@]12CC[C@H](N3CCOCC3)C[C@@H]1CC[C@@H]1[C@@H]2CC[C@]2(C)[C@@H](c3ccc4ccncc4c3)CC[C@@H]12` yielded an IC50 of 101 nM. `C[C@]12CC[C@H](O)CC1=CC[C@@H]1[C@@H]2CC[C@]2(C)C(c3ccc4nc(N)ncc4c3)=CC[C@@H]12` was tested, and the IC50 was 2000 nM. Molecule `CN(C)[C@@H]1CC[C@@]2(C)[C@@H](CC[C@@H]3[C@@H]2CC[C@]2(C)C(c4ccc5ccncc5c4)=CC[C@@H]32)C1` has an IC50 of 201 nM. `CN(C)[C@@H]1CC[C@@]2(C)[C@@H](CC[C@@H]3[C@@H]2CC[C@]2(C)[C@@H](c4ccc5ccncc5c4)CC[C@@H]32)C1` gave an IC50 of no more than 100 nM. `C[C@]12CC[C@H](O)CC1=CC[C@@H]1[C@@H]2CC[C@]2(C)C(c3ccc4c(N)n[nH]c4c3)=CC[C@@H]12` gave an IC50 of 701 nM. `CC(=O)N(C)[C@H]1CC[C@@]2(C)[C@@H](CC[C@@H]3[C@@H]2CC[C@]2(C)[C@@H](c4ccc5ccncc5c4)CC[C@@H]32)C1` gave an IC50 of no more than 100 nM. In the case of `C[C@]12CC[C@H](O)CC1=CC[C@@H]1[C@@H]2CC[C@]2(C)C(c3ccc4cnncc4c3)=CC[C@@H]12`, the IC50 is reported as no less than 6000 nM. Work on `CN(C)[C@H]1CC[C@@]2(C)[C@@H](CC[C@@H]3[C@@H]2CC[C@]2(C)[C@@H](c4ccc5ccncc5c4)CC[C@@H]32)C1` yielded an IC50 of no more than 100 nM. With `C[C@]12CC[C@H]3[C@@H](CC=C4C[C@@H](O)CC[C@@]43C)[C@@H]1CC[C@@H]2c1ccc2[nH]ncc2c1` the IC50 was no less than 6000 nM. Molecule `CN(C)[C@H]1CC[C@@]2(C)C(=CC[C@H]3[C@@H]4CC[C@H](c5ccc6ccncc6c5)[C@@]4(C)CC[C@@H]32)C1` has an IC50 of no more than 100 nM. Work on `C[C@]12CC[C@H]3[C@@H](CC=C4C[C@@H](O)CC[C@@]43C)[C@@H]1CC[C@@H]2c1ccc2cnncc2c1` yielded an IC50 of no less than 6000 nM. With `C[C@]12CC[C@H]3[C@@H](CC=C4C[C@@H](O)CC[C@@]43C)[C@@H]1CC[C@@H]2c1ccc2ccncc2c1` the IC50 was no more than 100 nM.

These molecules were tested against T1, Cyclin-dependent kinase 8 (assay: Inhibition of CDK8 in human HepG2 cells assessed as reduction in IFNgamma-induced STATl S727 phosphorylation incubated for 18 hrs by Western blot analysis).
Assay type: cell-based
For `CN(C)[C@H]1CC[C@@]2(C)C(=CC[C@H]3[C@@H]4CC[C@H](c5ccc6ccncc6c5)[C@@]4(C)CC[C@@H]32)C1`, the inhibition was “Dose-dependent effect”.

These molecules were tested against T2, Serine/threonine-protein kinase Nek1 (Homo sapiens, UniProt Q96PY6) (assay: Inhibition of NEK1 (unknown origin)).
T2 sequence (Q96PY6 whole entry): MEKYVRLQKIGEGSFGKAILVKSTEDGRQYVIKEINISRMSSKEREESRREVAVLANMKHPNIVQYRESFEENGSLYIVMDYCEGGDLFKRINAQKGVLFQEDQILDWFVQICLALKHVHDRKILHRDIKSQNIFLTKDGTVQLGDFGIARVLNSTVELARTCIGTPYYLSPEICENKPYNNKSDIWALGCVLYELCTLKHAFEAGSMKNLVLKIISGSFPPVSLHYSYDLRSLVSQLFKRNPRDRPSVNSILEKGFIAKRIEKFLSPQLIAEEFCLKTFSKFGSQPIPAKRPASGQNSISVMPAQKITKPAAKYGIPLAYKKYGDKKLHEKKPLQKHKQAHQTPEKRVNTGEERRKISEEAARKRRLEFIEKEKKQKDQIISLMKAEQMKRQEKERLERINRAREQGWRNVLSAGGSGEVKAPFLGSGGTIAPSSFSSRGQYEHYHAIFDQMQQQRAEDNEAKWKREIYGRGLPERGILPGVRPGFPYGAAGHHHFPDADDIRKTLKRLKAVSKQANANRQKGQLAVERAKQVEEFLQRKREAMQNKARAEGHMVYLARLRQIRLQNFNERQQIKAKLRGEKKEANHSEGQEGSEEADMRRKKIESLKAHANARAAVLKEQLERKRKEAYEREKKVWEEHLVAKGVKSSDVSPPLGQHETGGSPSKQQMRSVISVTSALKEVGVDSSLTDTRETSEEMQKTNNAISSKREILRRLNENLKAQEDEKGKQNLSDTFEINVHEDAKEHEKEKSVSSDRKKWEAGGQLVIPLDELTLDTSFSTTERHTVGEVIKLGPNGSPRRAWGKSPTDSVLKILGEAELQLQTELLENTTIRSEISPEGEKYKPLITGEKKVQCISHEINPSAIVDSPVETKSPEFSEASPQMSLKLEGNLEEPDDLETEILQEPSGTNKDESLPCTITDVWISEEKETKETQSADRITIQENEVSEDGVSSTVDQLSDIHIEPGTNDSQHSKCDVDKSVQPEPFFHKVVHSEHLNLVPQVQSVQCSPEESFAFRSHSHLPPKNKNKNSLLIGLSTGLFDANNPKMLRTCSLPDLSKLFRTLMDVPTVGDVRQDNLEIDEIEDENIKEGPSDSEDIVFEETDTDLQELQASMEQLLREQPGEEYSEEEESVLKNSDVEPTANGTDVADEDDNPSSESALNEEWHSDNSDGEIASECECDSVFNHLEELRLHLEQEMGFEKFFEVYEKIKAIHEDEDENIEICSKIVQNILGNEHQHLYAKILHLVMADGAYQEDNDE
Work on `CN(C)[C@H]1CC[C@@]2(C)C(=CC[C@H]3[C@@H]4CC[C@H](c5ccc6ccncc6c5)[C@@]4(C)CC[C@@H]32)C1` yielded an IC50 greater than 10000 nM.
